# According to patent publication US20040220268A1, “Compound that directly stimulates phospholipase C activity” (priority 2003, published 2004):
# Legend:
# PLC β3 = target: T1, PLC β3 (Homo sapiens, UniProt Q01970); assay: Phosphoinositide hydrolysis in vitro; assay type: biochemical; conditions: 25 μM; purified isozyme
# T1 sequence (Q01970 1-1234): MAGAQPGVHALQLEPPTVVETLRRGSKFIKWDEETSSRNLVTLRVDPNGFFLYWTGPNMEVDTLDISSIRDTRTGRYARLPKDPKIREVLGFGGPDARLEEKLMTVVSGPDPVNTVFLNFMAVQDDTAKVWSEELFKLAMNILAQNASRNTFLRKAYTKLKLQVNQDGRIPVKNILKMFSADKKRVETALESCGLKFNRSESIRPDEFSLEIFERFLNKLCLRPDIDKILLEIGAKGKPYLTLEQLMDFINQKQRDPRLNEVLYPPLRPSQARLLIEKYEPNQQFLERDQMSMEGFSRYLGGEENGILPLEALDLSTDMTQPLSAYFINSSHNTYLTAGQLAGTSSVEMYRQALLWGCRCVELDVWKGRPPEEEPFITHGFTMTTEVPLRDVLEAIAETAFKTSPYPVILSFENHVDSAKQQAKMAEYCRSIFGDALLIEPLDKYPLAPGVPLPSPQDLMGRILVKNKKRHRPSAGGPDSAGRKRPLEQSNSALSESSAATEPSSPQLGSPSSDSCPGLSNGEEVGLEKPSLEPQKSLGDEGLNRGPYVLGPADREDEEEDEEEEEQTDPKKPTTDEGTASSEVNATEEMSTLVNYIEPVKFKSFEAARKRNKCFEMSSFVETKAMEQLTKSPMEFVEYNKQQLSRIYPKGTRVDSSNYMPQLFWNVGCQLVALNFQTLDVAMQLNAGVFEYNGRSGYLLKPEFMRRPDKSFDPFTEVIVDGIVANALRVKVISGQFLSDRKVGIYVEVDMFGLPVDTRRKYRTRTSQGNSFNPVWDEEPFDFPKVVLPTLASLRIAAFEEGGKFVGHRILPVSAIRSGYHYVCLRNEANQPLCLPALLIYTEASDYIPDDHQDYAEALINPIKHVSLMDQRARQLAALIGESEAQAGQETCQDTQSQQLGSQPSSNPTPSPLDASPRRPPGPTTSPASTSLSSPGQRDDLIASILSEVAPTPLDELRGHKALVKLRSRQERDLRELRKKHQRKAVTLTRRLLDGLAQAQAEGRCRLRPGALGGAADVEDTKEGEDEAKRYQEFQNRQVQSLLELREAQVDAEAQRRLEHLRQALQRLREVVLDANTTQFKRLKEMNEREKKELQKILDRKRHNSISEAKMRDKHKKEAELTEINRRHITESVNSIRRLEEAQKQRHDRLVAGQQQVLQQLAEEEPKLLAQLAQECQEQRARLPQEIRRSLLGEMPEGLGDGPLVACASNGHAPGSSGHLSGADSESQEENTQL
# Procedure: The hydrolyzing activity of PtdIns-4,5-P2 was measured on mixed phospholipid vesicles containing 120 μM phosphatidylethanolamine, 30 μM PtdIns-4,5-P2, and 1 μCi/ml [3H] PtdIns-4,5-P2. Purified PLC β2, substrates, and the chemicals (2.5, 5, 10, 20, and 25 μM of m-3M3FBS or of o-3M3FBS) were coincubated (A), 25 μM of m-3M3FBS or o-3M3FBS, and phospholipid substrates were mixed with purified PLC β3, γ1, 2, or δ1 (B). Reactions were performed for 10 min at 37° C. in a 200 μl reaction mixture containing lipid micelles (5 μM [^3H] PtdIns-4,5-P2, 20,000 cpm). Reactions were stopped by adding 1 ml of CHCl3:CH3OH:HCl (50:50:0.3, v/v/v). Inositol trisphosphates were extracted with 0.5 ml of 1 M HCl/5 mM EGTA, and the radioactivity in the upper aqueous phase was measured. Data are presented as means ±S. E. M. of three independent experiments (A, B).
# PLC activity was assayed using [^3H] PtdIns-4,5-P2 as a substrate (Min et al., 1993). PtdIns-4,5-P2-hydrolyzing activity was measured with mixed phospholipid micelles containing 120 μM phosphatidylethanolamine, 30 μM PtdIns-4,5-P2, and 1 μCi/ml [^3H] PtdIns-4,5-P2. The lipids, in chloroform, were dried under a stream of nitrogen gas, suspended in assay buffer (20 mM HEPES pH 7.0, 120 mM NaCl, 2 mM MgCl2, 40 or 100 μM CaCl2, and 1 mg/ml bovine albumin serum (Bayer, Leverkusen, Germany)), and sonicated. All proteins added to the reaction mixture were dialyzed overnight against the assay buffer. Incubation was performed for 10 min at 37° C. in a 200 μl reaction mixture containing lipid micelles (5 μM [3H] PtdIns-4,5-P2, 20,000 cpm). The reaction was stopped by adding 2 ml of CHCl3: CH3OH: HCl (50: 50: 0.3, v/v/v). The inositol triphosphates were extracted with 0.5 ml of 1 N HCl, and radioactivities in the upper aqueous phase were measured.
# U937 cells = assay: Formation of inositol phosphates in cells (in vivo PLC activity); assay type: cell-based, human
# Procedure: U937 Cells were labeled with myo-[^3H] inositol (1 μCi/10^6 cells) for 24 h at 37° C. and then treated with various concentrations of m-3M3FBS or o-3M3FBS. Total inositol phosphates were eluted with a solution containing 1 M ammonium formate and 0.1 M formic acid. Radioactivity of the [3H] inositol phosphates was determined by counting in a scintillation counter. Data are presented as means ±S. E. M. of five independent experiments.
# Cells grown in culture were harvested by centrifugation, washed with inositol-free RPMI 1640 medium, and resuspended at a density of 2×10^6 cells/ml in the same medium. The cells were then labeled with myo-[^3H] inositol (1 μCi/10^6 cells) for 24 h at 37° C. and rinsed twice with inositol-free RPMI 1640 medium containing 0.5% fetal bovine serum, 20 mM of Hepes at pH 7.2, 20 mM of LiCl, and bovine serum albumin (1 mg/ml) and then resuspended at a density of 2×10^7 cells/ml. A portion (0.1 ml) of the cell suspension was transferred to a microcentrifuge tube and incubated at 37° C. for 15 min. PIP2 hydrolysis was initiated by adding chemicals or solvents for the indicated times. Reactions were terminated by adding 200 μl of ice-cold 10% perchloric acid (HClO4). […] The radioactivity of the [3H] inositol phosphates was determined using a scintillation counter (Tri-Packard, Meriden, Conn.).
smiles,measurement,setting,value
"Cc1cc(C)c(S(=O)(=O)Nc2ccccc2C(F)(F)F)c(C)c1 [o-3M3FBS, 2,4,6-Trimethyl-N-(ortho 3-trifluoromethyl-phenyl)-benzenesulfonamide, reference compound]",activity of PLC beta3,PLC β3,did not affect
same,effect on PLC activity (inositol phosphate formation),U937 cells,no effect
"Cc1cc(C)c(S(=O)(=O)Nc2cccc(C(F)(F)F)c2)c(C)c1 [m-3M3FBS, 2,4,6-Trimethyl-N-(meta 3-trifluoromethyl-phenyl)-benzenesulfonamide]",activity of PLC beta3,PLC β3,augmented the activity
same,fold increase of accumulation of inositol phosphates,U937 cells; 50 μM,2.5 fold
